This is an account of results in paper PMC6450887, “Metabolic resistance of the D-peptide RD2 developed for direct elimination of amyloid-β oligomers” (Scientific Reports, 2019).

Non-standard residues stand in square brackets, D forms with d. Residues, ends and D or L forms follow the SMILES beside them.

Data set [1] in a line: Stability in simulated intestinal fluid (SIF), RP-HPLC. It is filed as in vitro ADME. Conditions: simulated intestinal fluid (SIF), 150 µM, 37 °C, 24 h, read-out: unmetabolized peptide remaining (remained stable). As for the experimental part:
(§1) The preparation of the media was performed as described before in Elfgen et al.[24]. Preparation of simulated gastric and intestinal fluid (SGF & SIF) was done according to the European Pharmacopoeia 7.0. Plasma samples were obtained from human blood of a volunteer donor. Pooled human liver microsomes were purchased from Sekisui XenoTech (Kansas City, USA; H1000, Lot: 0710494 and 1210270; H1500, Lot: 1210079), from Sigma-Aldrich (St. Louis, USA; M0692, Lot: SLBL1433V; M0567, Lot: SLBR2706V and SLBN7300V) and from Gibco, Thermo Fisher Scientific (Waltham, USA; HMMCPL, Lot: PL050; HMMCPM, Lot: PL039). Pooled Sprague Dawley rat liver microsomes were purchased from Sigma-Aldrich (St. Louis, USA; M9066, Lot: SLBN0707V) and from Gibco, Thermo Fisher Scientific (Waltham, USA; RTMCPL, Lot: RT053). Pooled cynomolgus monkey liver microsomes were purchased from Gibco, Thermo Fisher Scientific (Waltham, USA; MKMCPL, Lot: MK062) and from Sekisui XenoTech (Kansas City, USA; P2000, Lot: 1210334). The liver microsomes were diluted in an NADPH regenerating system (NRS).
(§2) For the stability tests, 150 µM RD2 or L-RD2 was incubated in SGF, SIF, human plasma and human liver microsomes in triplicate at 37 °C with slight shaking for different time periods. To prevent microbial contaminations in long-term plasma incubations, 0.1% sodium azide was added to the solutions. Microsomal long-term activity was examined by incubating microsomes without peptide for up to 24 h and adding L-RD2 after 8 and 24 h. The ability to degrade L-RD2 served as indicator for their activity. For the comparison of RD2 metabolite profiles across species, 150 µM RD2 was incubated in human, rat and cynomolgus liver microsomes at 37 °C for 2 and 24 h. […]
For sample analysis from stability tests (see 2.3), mobile phases were acetonitrile (A) and water (B) each supplemented with 0.15% trifluoroacetic acid (TFA) (v/v). The samples were measured isocratically at 10% solvent A for 30 min. […] A chromatographic metabolite profile of L-RD2 in SIF was recorded with the same mobile phases but using a gradient from 0 to 30% solvent A in 30 min.

Data set [2] can be described thus: Comparison of RD2 metabolite profiles across species: rat liver microsomes. Type of data set: in vitro ADME. The protocol: as §1, §2
For the comparison of RD2 metabolite profiles across species (see 2.3), mobile phases were acetonitrile (A) and water (B) each supplemented with 0.1% TFA. […] The amount of the purified HSM-3 was calculated based on a calibration curve of 10 to 100 µM RD2 extracted from human liver microsomes.

Data set [3] relates to cynomolguses. Conditions: cynomolgus monkey, in vivo, po; cited from earlier work.
Data set [4] has as its target T1, CYP1A (Homo sapiens, UniProt P05177).
T1 sequence (P05177 2-516): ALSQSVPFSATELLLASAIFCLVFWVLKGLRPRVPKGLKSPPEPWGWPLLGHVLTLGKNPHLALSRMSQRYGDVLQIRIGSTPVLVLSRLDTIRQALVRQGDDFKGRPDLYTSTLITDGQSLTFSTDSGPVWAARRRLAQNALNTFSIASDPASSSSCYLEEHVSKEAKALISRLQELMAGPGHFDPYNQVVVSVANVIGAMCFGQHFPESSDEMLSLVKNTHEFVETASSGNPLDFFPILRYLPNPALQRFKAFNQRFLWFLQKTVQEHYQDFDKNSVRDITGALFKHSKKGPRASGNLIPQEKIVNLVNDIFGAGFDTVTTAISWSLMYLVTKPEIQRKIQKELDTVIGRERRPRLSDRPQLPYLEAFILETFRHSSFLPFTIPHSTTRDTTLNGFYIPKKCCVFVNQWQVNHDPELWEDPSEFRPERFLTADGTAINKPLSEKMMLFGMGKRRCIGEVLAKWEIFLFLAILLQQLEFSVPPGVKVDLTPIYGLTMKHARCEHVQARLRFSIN
Description: CYP isoform inhibition in human liver microsomes (Cyprotex). In general terms: Liver microsomes are a subcellular fraction often used to study metabolism.
Description: (§3) The experiments were performed by Cyprotex. […] The reactions were terminated by methanol and the generated metabolites were monitored by LC-MS/MS or fluorescence. […] All assays were performed sevenfold. […] For all other substrates, the termination plates were centrifuged at 2,500 rpm and 4 °C for 30 min and aliquots of the supernatants were combined and transferred to fresh 96-well plates. Formic acid in deionized water (final concentration 0.1%) containing internal standard was added to the supernatants prior to cassette analysis by LC-MS/MS. A decrease in the formation of the metabolite compared to the vehicle control was used to calculate the IC50 values.

In data set [5] the target is CYP2C19 (Homo sapiens, UniProt P33261). The data set is described as above.
Chain of CYP2C19 (P33261 whole entry): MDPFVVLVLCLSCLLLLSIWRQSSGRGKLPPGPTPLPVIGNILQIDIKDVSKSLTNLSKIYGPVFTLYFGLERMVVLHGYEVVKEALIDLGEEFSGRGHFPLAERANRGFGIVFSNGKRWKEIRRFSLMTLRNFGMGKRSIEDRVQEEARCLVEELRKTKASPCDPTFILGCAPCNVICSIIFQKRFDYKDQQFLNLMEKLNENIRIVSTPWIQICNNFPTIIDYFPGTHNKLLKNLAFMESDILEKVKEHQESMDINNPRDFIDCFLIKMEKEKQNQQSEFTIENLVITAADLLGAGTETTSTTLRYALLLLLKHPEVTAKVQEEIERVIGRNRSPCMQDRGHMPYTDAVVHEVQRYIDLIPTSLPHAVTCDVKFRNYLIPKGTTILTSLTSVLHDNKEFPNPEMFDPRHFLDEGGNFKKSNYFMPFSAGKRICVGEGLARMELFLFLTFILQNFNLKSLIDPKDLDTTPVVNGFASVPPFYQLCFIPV
Description: as §3
Data set [6] addresses CYP3A4 (Homo sapiens, UniProt P08684). The data set is described as above.
Description: as §3

The term fraction remaining denotes the share of the starting amount still present when the sample was taken. Broadly, the inhibition is the relative decrease from the control value, in per cent.

Chain of CYP3A4 (P08684 whole entry): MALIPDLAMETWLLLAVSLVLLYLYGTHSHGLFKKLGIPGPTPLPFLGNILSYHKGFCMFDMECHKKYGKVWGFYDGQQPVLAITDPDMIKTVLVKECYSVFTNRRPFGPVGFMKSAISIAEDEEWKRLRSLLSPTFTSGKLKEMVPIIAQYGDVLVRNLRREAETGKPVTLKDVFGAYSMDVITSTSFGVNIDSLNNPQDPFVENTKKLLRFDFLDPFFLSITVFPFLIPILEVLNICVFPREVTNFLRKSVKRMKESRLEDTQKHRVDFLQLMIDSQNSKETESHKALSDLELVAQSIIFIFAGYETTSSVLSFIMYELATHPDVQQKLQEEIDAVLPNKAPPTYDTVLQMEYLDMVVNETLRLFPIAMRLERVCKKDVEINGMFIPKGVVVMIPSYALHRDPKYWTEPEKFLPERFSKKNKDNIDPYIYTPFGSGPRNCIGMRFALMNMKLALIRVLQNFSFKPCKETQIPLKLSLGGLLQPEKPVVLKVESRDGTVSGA

As to `CC(C)C[C@@H](NC(=O)[C@H](NC(=O)[C@H]1CCCN1)[C@H](C)O)C(=O)N[C@H](Cc1c[nH]cn1)C(=O)N[C@@H](C(=O)N[C@H](Cc1c[nH]cn1)C(=O)N[C@H](CC(N)=O)C(=O)N[C@H](CCCNC(=N)N)C(=O)N[C@H](CCCNC(=N)N)C(=O)N[C@H](CCCNC(=N)N)C(=O)N[C@H](CCCNC(=N)N)C(=O)N[C@H](CCCNC(=N)N)C(N)=O)[C@H](C)O` [RD2, ptlhthnrrrrr] (H-[dP][dT][dL][dH][dT][dH][dN][dR][dR][dR][dR][dR]-NH2), the amount remaining at 24 h, 150 µM in data set [1] is no less than 97%. Besides, the metabolised at 24 h, 150 µM in data set [2] (Sprague Dawley, pooled rat liver microsomes, rat samples, 24 h, read-out: decrease of the intensity of the RD2 peak) was 17 ± 4%. Moreover, the “metabolization of RD2 after 2 h” value in data set [2] (rat liver microsomes, 150 µM, 2 h) is on record as “unmetabolized”. In addition, in data set [3], the “toxic effects of orally administered RD2” value was “does not cause toxic effects up to high doses”. Further, in data set [4] (concentration range 0 to 25 µM), the “inhibition of CYP1A” value is “did not inhibit”. Moreover, in data set [4] (human, human liver microsomes), the inhibition at 0.25 µM is 6.18%, the inhibition at 1 µM was 9.42%, the inhibition at 2.5 µM was found to be 1.34% and the inhibition at 10 µM is -0.842%. Moreover, in data set [4] (human, human liver microsomes), the inhibition at 25 µM was -0.198%. In addition, in data set [5] (concentration range 0 to 25 µM), the “inhibition of CYP2C19” value was “did not inhibit”. In data set [5] (human, human liver microsomes), the inhibition at 0.25 µM amounted to 7.64%, the inhibition at 1 µM came out at 2.47%, the inhibition at 2.5 µM came out at 2.54% and the inhibition at 10 µM was -5.77%. Also, the inhibition at 25 µM in data set [5] (human, human liver microsomes) is -45.5%. Further, the “inhibition of CYP3A4” value in data set [6] (concentration range 0 to 25 µM) is reported as “did not inhibit”. For the same compound, in data set [6] (human, human liver microsomes), the inhibition at 0.25 µM is -0.223%, the inhibition at 1 µM was determined as 5.77%, the inhibition at 2.5 µM was found to be 1.71% and the inhibition at 10 µM is -3.08%. Moreover, the inhibition at 25 µM in data set [6] (human, human liver microsomes) is -12%.
